Measurements from patent US20230105108A1, “COMPOUNDS FOR THE TREATMENT OF BACTERIAL INFECTIONS AND POTENTIATION OF ANTIBIOTICS” (GEORGIA STATE UNIVERSITY RESEARCH FOUNDATION, INC., priority 2019, published 2023).
Structures can show the parent of a compound that is named as a salt. Where two headings read alike, the source gives them in different places.

Columns and labels:
E. coli = assay: Sensitization of E. coli (sensitization fold), Example 2; type: cell-based
Procedure: The sensitization fold of select compounds of the present invention was determined. E. coli bacteria were cultured in nutrient broth at 37° C. overnight prior to treatment. […] Bacterial density was measured based on OD600.

[1] = Cytotoxicity in H9c2 cells (CCK-8); type: cell-based; conditions: rat, H9c2 cells; for IC50 at 24 h: H9c2 cells (ATCC CRL-1446); for CC50 at 24 h: H9c2 cell line
Procedure: The cytotoxicity in H9c2 (ATCC®CRL-1446™) cells was also determined. The H9c2 cells were maintained in DMEM (Dulbecco's Modified Eagle's Medium) supplemented with 10% fetal bovine serum (MidSci; S01520HI) and 1% penicillin-streptomycin (Sigma-Aldrich; P4333) at 37° C. with 5% CO2. The H9c2 cells were seeded in 96-well plate one day before the experiment. Different concentrations of di-amidine compounds were added into the H9c2 cells. The cells were then incubated with the compounds for 24 hours at 37° C. with 5% CO2. The cell viability was tested by the CCK-8. Specifically, after 24 hour incubation, 10 μL CCK-8 was added to each well. After 3 hours incubation at 37° C., the absorbance at 450 nm was recorded by a plate reader.

E. coli (ATCC 25922) = assay: MIC determination, sensitization fold and FIC index on E. coli; type: cell-based; conditions: for MIC: Escherichia coli, ATCC25922, 24 h; for sensitization activity: compound at up to 10 μM; for Sensitization: compound up to 25 μM
Procedure: (§1) Bacteria culture and MICs determination: Gram-negative bacteria were cultured in Mueller Hinton II cation-adjusted broth. Gram-positive bacteria were cultured in LB broth. Mycobacterium smegmatis was cultured in Middlebrook 7H9 Broth. MICs of antibiotics itself were determined by performing two-fold serial dilutions of antibiotics. MICs of antibiotics in the presence of bacterial sensitizers were determined by performing two-fold serial dilutions of antibiotics with or without a constant concentration of bacterial sensitizers. The MICs tests were performed on 96-well plates with a final volume of 200 μl Mueller Hinton II cation-adjusted broth in each well. Each well was inoculated with 5×10^5 CFU/ml bacteria and was incubated for 24 h at 37° C. with continuous shaking of 200 rpm. The bacterial density was then determined by OD600. Bacterial growth %=OD600 of antibiotic treatment group/OD600 of antibiotic non-treatment group. MICs was determined as the concentrations that inhibit more than 90% of bacteria growth.
(§2) Sensitization fold determination and FIC index calculations: Sensitization fold=MIC of antibiotic only/MIC of antibiotic with bacterial sensitizer. […] Since the MICs were determined by performing two-fold serial dilutions of antibiotic, so the sensitization fold can is the times of 2.
FIC index between compound a and b was calculated according to the formula below: […]
FIC≤0.5: Synergy; FIC between 0.5 and 1: Additive; FIC between 1 and […]: no interaction; FIC >4: antagonism.
(§3) Bacteria strains (as indicated in Table 5B) were cultured with rifampicin at various concentrations in the presence or absence of 10 μM of the indicated compound for 20 h at 37° C. The MIC, sensitization, cytotoxicity, and MIC on mycobacteria were tested according to methods described herein. […] The sensitization activities of compounds on MRSA were tested using rifampicin. The sensitization activities of compounds on E. coli were tested using rifampicin.

B. subtilis = assay: MIC determination and sensitization fold on B. subtilis; type: cell-based; conditions: B. subtilis; for Sensitization fold / Sensitization: erythromycin; for MIC: Bacillus subtilis, 24 h, compound alone, read-out: MIC; for Sensitization: compound up to 12 μM
MRSA (ATCC 33592) = assay: MIC determination and sensitization fold on MRSA; type: cell-based, methicillin-resistant Staphylococcus aureus; conditions: for MIC: Staphylococcus aureus, 24 h; for Sensitization fold: rifampicin
Procedure: Bacteria strains: E. coli (ATCC 25922), A. baumannii (ATCC 17978), K. pneumoniae (43816), S. maltophilia (ATCC 31559), S. typhimurium (ATCC 14028), C. werkmanii (ATCC 51114), S. aureus (ATCC 12600) and methicillin-resistant Staphylococcus aureus (MRSA, ATCC 33592) strains were purchased from ATCC. NR698 was provided.
as §1, §2, §3

[2] = Cytotoxicity on mammalian cells (CCK-8), HEK293; type: cell-based; conditions: human, HEK293 cells; HEK293 cell line; 24 h
Procedure: (§4) Cytotoxicity test of bacterial sensitizers on mammalian cells. Cell viability was assessed by using Cell Counting Kit-8 (CCK-8, Dojindo, Japan). HEK293 or NIH3T3 cells were seeded in a 96-well plate one day before the experiment to reach 80% confluency. Cells were then incubated with various concentration of bacterial sensitizers at 37° C. with 5% CO2 for 24 h, then 10 μL of CCK-8 solution was added to each well, and the plate was incubated for an additional at 37° C. 2 h with 5% CO2. The optical density at 450 nm was recorded by plate reader; and the results were calculated as a percentage of viability compared with the untreated control.

[3] = Cytotoxicity on mammalian cells (CCK-8), NIH3T3; type: cell-based; conditions: mouse, NIH3T3 cells, 3T3 cell line
Procedure: as §4

HEK293 cells = assay: Cytotoxicity on mammalian cells (CCK-8), HEK293; type: cell-based; conditions: Homo sapiens
Procedure: as §4

[4] = 10 μM compound, rifampicin as the antibiotic (Table 6)
[5] = E. coli, rifampicin, compound at 25 μM
[6] = E. coli, compound alone, read-out: MIC
[7] = MRSA, compound alone, read-out: MIC

SMILES: N=C(N)Nc1ccc(-c2ccc(-c3ccc(NC(=N)N)cc3)cc2)cc1 [Compound A]
- Sensitization ability: fold sensitization of E. coli towards rifampicin (E. coli; compound at 25 μM): At 25 μM, sensitize E. coli towards rifampicin for 256-fold;
- IC50 at 24 h [1]: 50 µM

SMILES: N=C(N)Nc1ccc(-c2ccc(-c3nc4ccc(NC(=N)N)cc4[nH]3)o2)cc1 [Compound B]
- Sensitization ability: fold sensitization of E. coli towards rifampicin (E. coli; compound at 25 μM): At 25 μM, sensitize E. coli towards rifampicin for 16-fold;
- IC50 at 24 h [1]: 100 µM

SMILES: N=C(N)Nc1ccc(-c2ccc(-c3ccc(NC(=N)N)cc3Cl)o2)c(Cl)c1 [Compound C]
- Sensitization ability: fold sensitization of E. coli towards rifampicin (E. coli; compound at 4 μM): At 4 μM, sensitize E. coli towards rifampicin for 516-fold;
- IC50 at 24 h [1]: 50 µM

SMILES: N=C(N)c1ccc(-c2ccc(-c3ccc(-c4ccc(C(=N)N)o4)o3)o2)cc1 [Compound M]
- Sensitization ability: fold sensitization of E. coli towards rifampicin (E. coli; compound at 15 μM): 32 fold
- Sensitization ability: fold sensitization of E. coli towards rifampicin (E. coli; compound at 25 μM): 516 fold
- IC50 at 24 h [1]: 100 µM

SMILES: N=C(N)c1ccc(-c2ccc(-c3ccc(-c4ccc(C(=N)N)o4)o3)o2)o1 [Compound N]
- Sensitization ability: fold sensitization of E. coli towards rifampicin (E. coli; compound at 25 μM): At 25 μM, sensitize E. coli towards rifampicin for 64-fold.
- IC50 at 24 h [1]: 100 µM

SMILES: N=C(N)Nc1ccc(-c2ccc(-c3ccc(-c4ccc(NC(=N)N)cc4)o3)o2)cc1 [Compound O]
- Sensitization ability: fold sensitization of E. coli towards rifampicin (E. coli; compound at 10 μM): At 10 μM, sensitize E. coli towards rifampicin for 256-fold.
- IC50 at 24 h [1]: > 100 µM

SMILES: N=C(N)c1ccc(-c2ccc(-c3ccc(-c4ccc(C(=N)N)o4)s3)s2)o1 [Compound P]
- Sensitization ability: fold sensitization of E. coli towards rifampicin (E. coli; compound at 25 μM): At 25 μM, sensitize E. coli towards rifampicin for 32-fold;
- IC50 at 24 h [1]: 50 µM

SMILES: N=C(N)c1ccc(-c2ccc(-c3ccc(-c4ccc(C(=N)N)s4)o3)o2)s1 [Compound Q]
- Sensitization ability: fold sensitization of E. coli towards rifampicin (E. coli; compound at 25 μM): At 25 μM, sensitize E. coli towards rifampicin for 32-fold;
- IC50 at 24 h [1]: 50 µM

SMILES: Cc1cc(COc2ccc(CN)cc2)cc(COc2ccc(CN)cc2)c1 [MD-106, ((((S-methyl-1,3-phenylene)bis(methylene))bis(oxy))bis(4,1-phenylene))dimethanamine dihydrochloride]
- CC50 at 24 h [1]: 12.5 µM
- Sensitization fold (E. coli (ATCC 25922); [4]): 1 fold
- Sensitization fold (E. coli (ATCC 25922); [5]): 4-fold at 25 μM
- MIC (E. coli (ATCC 25922); [6]): 100 µM
- sensitization activity (E. coli (ATCC 25922); rifampicin): no sensitization activity
- Sensitization fold (B. subtilis; compound at 4 μM): 4-fold at 4 μM
- Sensitization fold (B. subtilis; compound at 12 μM): 16-fold at 12 μM
- MIC (B. subtilis): > 50 µM
- MIC (MRSA (ATCC 33592); [7]): > 50 µM
- CC50 at 24 h [2]: 25 µM
- CC50 at 24 h [3]: 25 µM

SMILES: CC(C)NC(=N)c1ccc(OCc2cccc(COc3ccc(C(=N)NC(C)C)cc3F)c2F)c(F)c1 [MD-111, 1,3-Bis {(4-isopropylamidino-2-fluoro)-phenoxymethyl}-2-fluorobenzene dihydrochloride]
- Sensitization (E. coli (ATCC 25922); E. coli, rifampicin): No effect up to 25 μM.
- MIC (E. coli (ATCC 25922); [6]): 50 µM
- Sensitization (B. subtilis): No effect up to 12 μM.
- MIC (B. subtilis): 25 µM
- Sensitization fold (MRSA (ATCC 33592); MRSA, compound at 6 μM): 8 -fold at 6 μM.
- Sensitization fold (MRSA (ATCC 33592); MRSA, compound at 12 μM): 16-fold at 12 μM,
- MIC (MRSA (ATCC 33592); [7]): 50 µM
- CC50 at 24 h [2]: > 100 µM
- CC50 at 24 h [3]: > 100 µM

SMILES: Cc1cc(COc2ccc(C3=NCCCN3)cc2)cc(COc2ccc(C3=NCCCN3)cc2)c1 [MD-113, 2,2′-((((5-methyl-1,3-phenylene)bis(methylene))bis(oxy))bis(4,1-phenylene))bis(1,4,5,6-tetrahydropyrimidine) dihydrochloride]
- Sensitization (E. coli (ATCC 25922); E. coli, rifampicin): No effect up to 25 μM.
- MIC (E. coli (ATCC 25922)): > 100 µM
- sensitization activity (E. coli (ATCC 25922); rifampicin): no sensitization activity
- Sensitization (B. subtilis): No effect up to 12 μM.
- MIC (B. subtilis): 50 µM
- Sensitization fold (MRSA (ATCC 33592); MRSA, compound at 12 μM): 4-fold at 12 μM.
- Sensitization fold (MRSA (ATCC 33592); MRSA, compound at 25 μM): 8-fold at 25 μM,
- MIC (MRSA (ATCC 33592)): > 50 µM
- CC50 at 24 h [2]: > 100 µM
- CC50 at 24 h [3]: > 100 µM

SMILES: CC(C)(C)c1cc(COc2ccc(C(=N)N)cc2F)cc(COc2ccc(C(=N)N)cc2F)c1 [MD-115, 4,4′-(((5-(tert-butyl)-1,3-phenylene)bis(methylene))bis(oxy))bis(3-fluorobenzimidamide) dihydrochloride]
- CC50 at 24 h [1]: 25 µM
- Sensitization fold (E. coli (ATCC 25922); [4]): 256 fold
- Sensitization fold (E. coli (ATCC 25922); E. coli, rifampicin, compound at 10 μM): 256-fold at 10 μM
- Sensitization fold (B. subtilis; compound at 6 μM): 8-fold at 6 μM
- MIC (MRSA (ATCC 33592)): 25 µM
- CC50 at 24 h [2]: 25 to 50 µM
- IC50 (HEK293 cells; HEK293): 25 to 50 µM
- CC50 at 24 h [3]: 25 to 50 µM

SMILES: Cc1cc(COc2cccc(C(=N)N)c2)cc(COc2cccc(C(=N)N)c2)c1 [MD-116, 3,3′-(((5-methyl-1,3-phenylene)bis(methylene))bis(oxy))dibenzimidamide dihydrochloride]
- Sensitization fold (E. coli (ATCC 25922); [5]): 8-fold at 25 μM
- MIC (E. coli (ATCC 25922)): 100 µM
- Sensitization fold (B. subtilis; compound at 12 μM): 32-fold at 12 μM
- Sensitization fold (MRSA (ATCC 33592); MRSA, compound at 12.5 μM): 4-fold at 12.5 μM.
- CC50 at 24 h [2]: > 100 µM
- CC50 at 24 h [3]: > 100 µM

SMILES: Cc1cc(CSc2ccc(C(=N)N)cc2)cc(CSc2ccc(C(=N)N)cc2)c1 [MD-117, 4,4′-(((5-methyl-1,3-phenylene)bis(methylene))bis(sulfanediyl)) dibenzimidamide dihydrochloride]
- Sensitization fold (E. coli (ATCC 25922); [4]): 32 fold
- Sensitization fold (E. coli (ATCC 25922); E. coli, rifampicin, compound at 6 μM): 8-fold at 6 μM.
- Sensitization fold (E. coli (ATCC 25922); E. coli, rifampicin, compound at 12.5 μM): 32-fold at 12.5 μM
- MIC (E. coli (ATCC 25922); [6]): 50 µM
- Sensitization fold (B. subtilis; compound at 3 μM): 8-fold at 3 μM.
- Sensitization fold (B. subtilis; compound at 6 μM): 32-fold at 6 μM
- MIC (B. subtilis): 25 µM
- MIC (MRSA (ATCC 33592); [7]): 12.5 µM
- CC50 at 24 h [2]: 25 to 50 µM
- IC50 (HEK293 cells; HEK293 cells (Table 6), read-out: IC50): 25 to 50 µM
- CC50 at 24 h [3]: 25 to 50 µM
